Each structure is given as a SMILES string. ≈ marks a conversion by molar mass, not a printed value. Some results are limits rather than exact numbers.

Common to all, as to test: In-vitro test, inhibitory concentration by dilution series
What all share (format): cell-based

One assay deals with Enterobacter cloacae. The following applies: XIII = Enterobacter cloacae, Laborstämme, step = concentration with no visible growth; for MIC: read-out: Hemmkonzentration nach Verdünnung (Verdünnungsreihe) (converted). The source says:
(§1) Die antibiotische Wirksamkeit erfindungsgemäßer Verbindungen wurde in der üblichen Weise durch Ermittlung der Hemmkonzentrationen nach Verdünnung ermittelt.
(§2) Die erhaltenen Ergebnisse sind in der nachstehenden Tabelle zusammengefaßt.

In assay [1] the test system is Staphylococcus aureus SG 511. The settings on record: II = Staphylococcus aureus SG 511, step = concentration with no visible growth; for MIC: SG511, read-out: Hemmkonzentration nach Verdünnung (Verdünnungsreihe) (converted).
From the text: as §1, §2

A further assay has as its system Bacillus subtilis SG 119. The following applies: I = Bacillus subtilis SG 119, step = concentration with no visible growth; for MIC: SG119, read-out: Hemmkonzentration nach Verdünnung (Verdünnungsreihe) (converted).
From the text: as §1, §2

The subject of the next assay is Citrobacter freudii. The following applies: XIV = Citrobacter freudii, Laborstämme, step = concentration with no visible growth; for MIC: read-out: Hemmkonzentration nach Verdünnung (Verdünnungsreihe) (converted).
From the text: as §1, §2

The subject of assay [2] is Salmonella gallinarium ATCC 9184. The following applies: ATCC9184; VI = Salmonella gallinarium ATCC 9184; step = concentration with no visible growth; read-out: Hemmkonzentration nach Verdünnung (Verdünnungsreihe) (converted).
From the text: as §1, §2

A further assay concerns Staphylococcus aureus. The following applies: IX = Staphylococcus aureus, Laborstämme, step = concentration with no visible growth; for MIC: read-out: Hemmkonzentration nach Verdünnung (Verdünnungsreihe) (converted).
From the text: as §1, §2

Assay [3] relates to Klebsiella pneumoniae SG 117. The following applies: VII = Klebsiella pneumoniae SG 117, step = concentration with no visible growth; for MIC: SG117, read-out: Hemmkonzentration nach Verdünnung (Verdünnungsreihe) (converted).
From the text: as §1, §2

For assay [4], the system named is Staphylococcus epidermidis. The settings on record: X = Staphylococcus epidermidis, Laborstämme, step = concentration with no visible growth; for MIC: read-out: Hemmkonzentration nach Verdünnung (Verdünnungsreihe) (converted).
From the text: as §1, §2

For assay [5], the system named is Pseudomonas aeruginosa NCTC 10701. The following applies: IV = Pseudomonas aeruginosa NCTC 10701, step = concentration with no visible growth; for MIC: NCTC10701, read-out: Hemmkonzentration nach Verdünnung (Verdünnungsreihe) (converted).
From the text: as §1, §2

The test system of another assay is Proteus vulgaris OX 19. The settings on record: III = Proteus vulgaris OX 19, step = concentration with no visible growth; for MIC: OX19, read-out: Hemmkonzentration nach Verdünnung (Verdünnungsreihe) (converted).
From the text: as §1, §2

The test system of another assay is Escherichia coli. The settings on record: XII = Escherichia coli, Laborstämme, step = concentration with no visible growth; for MIC: read-out: Hemmkonzentration nach Verdünnung (Verdünnungsreihe) (converted).
From the text: as §1, §2

In another assay the test system is Enterokokken. The following applies: XI = Enterokokken, Laborstämme, step = concentration with no visible growth; for MIC: read-out: Hemmkonzentration nach Verdünnung (Verdünnungsreihe) (converted).
From the text: as §1, §2

Assay [6] relates to Serratia marcescens SG 621. The following applies: VIII = Serratia marcescens SG 621, step = concentration with no visible growth; for MIC: SG621, read-out: Hemmkonzentration nach Verdünnung (Verdünnungsreihe) (converted).
From the text: as §1, §2

Assay [7] has as its system Pseudomonas aeruginosa SG 137. The following applies: V = Pseudomonas aeruginosa SG 137, step = concentration with no visible growth; for MIC: SG137, read-out: Hemmkonzentration nach Verdünnung (Verdünnungsreihe) (converted).
From the text: as §1, §2

Regarding `COc1cc2ncc(C(=O)N[C@@H](C(=O)N[C@@H]3C(=O)N4[C@@H]3SC(C)(C)[C@@H]4C(=O)O)c3ccccc3)c(OC(=O)OCC(C)C)c2cc1OC` [Beisp. 20, 6-[D-(-)-α-([4'-Isobutoxycarbonyloxy-6',7'-dimethoxychinolinoyl-3']-carboxamido)-α-phenylacetamido]-penicillansäure-Natriumsalz], the MIC in the assay with Enterobacter cloacae was 12.5 µM (≈ 8.51 µg/mL); in assay [1], 1.56 µM (≈ 1.06 µg/mL); with Bacillus subtilis SG 119 it was 1.56 µM (≈ 1.06 µg/mL); in the assay with Citrobacter freudii, 12.5 µM (≈ 8.51 µg/mL); in assay [2] it was 3.12 µM (≈ 2.12 µg/mL); in the assay with Staphylococcus aureus, 25 µM (≈ 17 µg/mL). Besides, the MIC in assay [3] was 1.56 µM (≈ 1.06 µg/mL); in [4] it was 6.25 µM (≈ 4.25 µg/mL); in assay [5], 0.39 µM (≈ 0.265 µg/mL); with Proteus vulgaris OX 19, 0.39 µM (≈ 0.265 µg/mL); in the assay on Escherichia coli, 3.12 µM (≈ 2.12 µg/mL); in the assay on Enterokokken, 12.5 µM (≈ 8.51 µg/mL). In addition, the MIC was 6.25 µM (≈ 4.25 µg/mL) in assay [6] and 12.5 µM (≈ 8.51 µg/mL) in [7].
Take `CCCCOCc1cc2ncc(C(=O)N[C@@H](C(=O)N[C@@H]3C(=O)N4[C@@H]3SC(C)(C)[C@@H]4C(=O)O)c3ccccc3)c(OC(=O)OCC)c2cc1CC` [Beisp. 4, 6-[D-(-)-α-([4'-Ethoxycarbonyloxy-6'-ethyl-7'-n-butoxymethylen-chinolinoyl-3']-carboxamido)-α-phenylacetamido]-penicillansäure-Natriumsalz]: the MIC in the assay on Enterobacter cloacae is 3.12 µM (≈ 2.21 µg/mL); in [1] it was 0.78 µM (≈ 0.551 µg/mL); with Bacillus subtilis SG 119, 0.39 µM (≈ 0.276 µg/mL); in the assay with Citrobacter freudii, 6.25 µM (≈ 4.42 µg/mL); in assay [2], 1.56 µM (≈ 1.1 µg/mL); in the assay on Staphylococcus aureus, 12.5 µM (≈ 8.84 µg/mL). The MIC was 1.56 µM (≈ 1.1 µg/mL) in assay [3]; 3.12 µM (≈ 2.21 µg/mL) in assay [4]; 1.56 µM (≈ 1.1 µg/mL) in [5]; 0.78 µM (≈ 0.551 µg/mL) with Proteus vulgaris OX 19; 1.56 µM (≈ 1.1 µg/mL) in the assay with Escherichia coli; 6.25 µM (≈ 4.42 µg/mL) in the assay on Enterokokken. The MIC in [6] was 1.56 µM (≈ 1.1 µg/mL); in [7], 3.12 µM (≈ 2.21 µg/mL).
On to `CCc1cc2c(OC(=O)OCC(C)C)c(C(=O)N[C@@H](C(=O)N[C@@H]3C(=O)N4[C@@H]3SC(C)(C)[C@@H]4C(=O)O)c3ccccc3)cnc2cc1CN1CCOCC1` [Beisp. 14, 6-[D-(-)-α-([4'-Isobutoxycarbonyloxy-6'-ethyl-7'-morpholinomethylen-chinolinoyl-3']-carboxamido)-α-phenylacetamido]-penicillansäure-Natriumsalz], for which the MIC with Enterobacter cloacae was 3.12 µM (≈ 2.33 µg/mL); in [1] it was 0.78 µM (≈ 0.583 µg/mL); with Bacillus subtilis SG 119, 6.25 µM (≈ 4.67 µg/mL); in the assay on Citrobacter freudii, 3.12 µM (≈ 2.33 µg/mL); in [2], 1.56 µM (≈ 1.17 µg/mL); in the assay with Staphylococcus aureus, 3.12 µM (≈ 2.33 µg/mL). For the same molecule, the MIC in [3] was 0.78 µM (≈ 0.583 µg/mL); in assay [4], 3.12 µM (≈ 2.33 µg/mL); in assay [5], 0.78 µM (≈ 0.583 µg/mL); in the assay on Proteus vulgaris OX 19 it was 0.2 µM (≈ 0.15 µg/mL); in the assay on Escherichia coli, 0.78 µM (≈ 0.583 µg/mL); in the assay with Enterokokken it was 6.25 µM (≈ 4.67 µg/mL). Besides, the MIC was 0.78 µM (≈ 0.583 µg/mL) in assay [6] and 6.25 µM (≈ 4.67 µg/mL) in assay [7].
Turning to `CC1(C)S[C@@H]2[C@H](NC(=O)[C@H](N)c3ccccc3)C(=O)N2[C@H]1C(=O)O` [Ampicillin, reference compound], the MIC in the assay with Enterobacter cloacae is over 200 µM; in assay [1], 0.78 µM (≈ 0.273 µg/mL); in the assay on Bacillus subtilis SG 119, 0.2 µM (≈ 0.0699 µg/mL); with Citrobacter freudii it was over 200 µM; in [2], 0.78 µM (≈ 0.273 µg/mL); in the assay on Staphylococcus aureus it was 12.5 µM (≈ 4.37 µg/mL). Moreover, the MIC in assay [3] is 12.5 µM (≈ 4.37 µg/mL); in assay [4], 6.25 µM (≈ 2.18 µg/mL); in assay [5], 200 µM (≈ 69.9 µg/mL); in the assay with Proteus vulgaris OX 19 it was 12.5 µM (≈ 4.37 µg/mL); in the assay on Escherichia coli it was 12.5 µM (≈ 4.37 µg/mL); in the assay on Enterokokken, 6.25 µM (≈ 2.18 µg/mL). In addition, the MIC was 50 µM (≈ 17.5 µg/mL) in assay [6] and over 200 µM in [7].
`CCOC(=O)Oc1c(C(=O)N[C@@H](C(=O)N[C@@H]2C(=O)N3[C@@H]2SC(C)(C)[C@@H]3C(=O)O)c2ccccc2)cnc2cc(COc3ccc(Br)cc3)c(CC)cc12` [Beisp. 2, 6-[D-(-)-α-([4'-Ethoxycarbonyloxy-6'-ethyl-7'-(4''-brom)-phenoxymethylen-chinolinoyl-3']-carboxamido)-α-phenylacetamido]-penicillansäure-Natriumsalz]: the MIC with Enterobacter cloacae is 6.25 µM (≈ 5.04 µg/mL); in assay [1], 1.56 µM (≈ 1.26 µg/mL); with Bacillus subtilis SG 119 it was 3.12 µM (≈ 2.51 µg/mL); in the assay with Citrobacter freudii, 6.25 µM (≈ 5.04 µg/mL); in assay [2], 1.56 µM (≈ 1.26 µg/mL); in the assay on Staphylococcus aureus it was 25 µM (≈ 20.1 µg/mL). Besides, the MIC in assay [3] was 0.78 µM (≈ 0.628 µg/mL); in assay [4], 12.5 µM (≈ 10.1 µg/mL); in [5], 6.25 µM (≈ 5.04 µg/mL); in the assay on Proteus vulgaris OX 19, 0.78 µM (≈ 0.628 µg/mL); in the assay with Escherichia coli, 1.56 µM (≈ 1.26 µg/mL); in the assay on Enterokokken it was 12.5 µM (≈ 10.1 µg/mL). Moreover, the MIC in assay [6] is 1.56 µM (≈ 1.26 µg/mL); in assay [7], 12.5 µM (≈ 10.1 µg/mL).
As for `COc1ccc2ncc(C(=O)N[C@@H](C(=O)N[C@@H]3C(=O)N4[C@@H]3SC(C)(C)[C@@H]4C(=O)O)c3ccccc3)c(O)c2c1` [Beisp. 9, 6-[D-(-)-α-([4'-Hydroxy-6'-methoxy-chinolinoyl-3']-carboxamido)-α-phenylacetamido]-penicillansäure-Natriumsalz], the MIC in the assay on Enterobacter cloacae is 25 µM (≈ 13.8 µg/mL); in [1], 1.56 µM (≈ 0.859 µg/mL); in the assay with Bacillus subtilis SG 119, 1.56 µM (≈ 0.859 µg/mL); with Citrobacter freudii it was 25 µM (≈ 13.8 µg/mL); in assay [2], 1.56 µM (≈ 0.859 µg/mL); in the assay on Staphylococcus aureus, 12.5 µM (≈ 6.88 µg/mL). For the same molecule, the MIC is 1.56 µM (≈ 0.859 µg/mL) in [3]; 6.25 µM (≈ 3.44 µg/mL) in assay [4]; 0.39 µM (≈ 0.215 µg/mL) in [5]; 0.39 µM (≈ 0.215 µg/mL) with Proteus vulgaris OX 19; 3.12 µM (≈ 1.72 µg/mL) in the assay with Escherichia coli; 25 µM (≈ 13.8 µg/mL) with Enterokokken. Besides, the MIC in [6] is 1.56 µM (≈ 0.859 µg/mL); in assay [7], 25 µM (≈ 13.8 µg/mL).
Turning to `CC(C)COC(=O)Oc1c(C(=O)N[C@@H](C(=O)N[C@@H]2C(=O)N3[C@@H]2SC(C)(C)[C@@H]3C(=O)[O-])c2ccccc2)cnc2c1ccc1ccccc12.[Na+]` [Beisp. 12, 6-[D-(-)-α-([4'-Isobutoxycarbonyloxybenzo[1,2n]chinolinoyl-3']-carboxamido)-α-phenylacetamido]-penicillansäure-Natriumsalz], the “Hemmkonzentration nach Verdünnung (Verdünnungsreihe)” value (shortened to “Hemmkonzentration nach Verdünnung”) is recorded as 6 (= bei 0,00625 mM) in the assay on Enterobacter cloacae; 9 (= bei 0,00078 mM) in [1]; 7 (= bei 0,00312 mM) with Bacillus subtilis SG 119; 6 (= bei 0,00625 mM) in the assay on Citrobacter freudii; 6 (= bei 0,00625 mM) in the assay with Staphylococcus aureus; 9 (= bei 0,00078 mM) in assay [3]. Also, the “Hemmkonzentration nach Verdünnung” value in assay [4] is on record as 7 (= bei 0,00312 mM); in assay [5], 7 (= bei 0,00312 mM); in the assay with Proteus vulgaris OX 19, 10 (= bei 0,00039 mM); in the assay with Escherichia coli, 7 (= bei 0,00312 mM); in the assay on Enterokokken, 5 (= bei 0,0125 mM); in assay [6] it was 7 (= bei 0,00312 mM). For the same molecule, the “Hemmkonzentration nach Verdünnung” value in assay [7] was 5 (= bei 0,0125 mM).

(Values after patent EP0496332A1, “Alpha-aminoquinolinoyl-[3]-penicillines, process for their preparation and their use as antibacterial agents” (ARZNEIMITTELWERK DRESDEN GmbH, priority 1991, dated 1992).)
